In assay [1] the target is T1, xanthine oxidase (Bos taurus, UniProt P80457).
T1 construct: gene XDH
Nature of the assay: XO activity assay (uric acid absorbance at […] nm) with Lineweaver-Burk kinetics (Ki […]); also retained by XO in ultrafiltration UPLC-MS. Format: biochemical.

The target of assay [2] is T1, xanthine oxidase. The assay is described as above. Type of assay: biochemical. This is another data set of the same source.

The source of these data is PMC6273769, “Screening of Potential Xanthine Oxidase Inhibitors in Gnaphalium hypoleucum DC. by Immobilized Metal Affinity Chromatography and Ultrafiltration-Ultra Performance Liquid Chromatography-Mass Spectrometry” (Molecules, 2016).

Read-outs that look alike come from different tables or passages of the source.

T1 sequence (P80457 2-1332): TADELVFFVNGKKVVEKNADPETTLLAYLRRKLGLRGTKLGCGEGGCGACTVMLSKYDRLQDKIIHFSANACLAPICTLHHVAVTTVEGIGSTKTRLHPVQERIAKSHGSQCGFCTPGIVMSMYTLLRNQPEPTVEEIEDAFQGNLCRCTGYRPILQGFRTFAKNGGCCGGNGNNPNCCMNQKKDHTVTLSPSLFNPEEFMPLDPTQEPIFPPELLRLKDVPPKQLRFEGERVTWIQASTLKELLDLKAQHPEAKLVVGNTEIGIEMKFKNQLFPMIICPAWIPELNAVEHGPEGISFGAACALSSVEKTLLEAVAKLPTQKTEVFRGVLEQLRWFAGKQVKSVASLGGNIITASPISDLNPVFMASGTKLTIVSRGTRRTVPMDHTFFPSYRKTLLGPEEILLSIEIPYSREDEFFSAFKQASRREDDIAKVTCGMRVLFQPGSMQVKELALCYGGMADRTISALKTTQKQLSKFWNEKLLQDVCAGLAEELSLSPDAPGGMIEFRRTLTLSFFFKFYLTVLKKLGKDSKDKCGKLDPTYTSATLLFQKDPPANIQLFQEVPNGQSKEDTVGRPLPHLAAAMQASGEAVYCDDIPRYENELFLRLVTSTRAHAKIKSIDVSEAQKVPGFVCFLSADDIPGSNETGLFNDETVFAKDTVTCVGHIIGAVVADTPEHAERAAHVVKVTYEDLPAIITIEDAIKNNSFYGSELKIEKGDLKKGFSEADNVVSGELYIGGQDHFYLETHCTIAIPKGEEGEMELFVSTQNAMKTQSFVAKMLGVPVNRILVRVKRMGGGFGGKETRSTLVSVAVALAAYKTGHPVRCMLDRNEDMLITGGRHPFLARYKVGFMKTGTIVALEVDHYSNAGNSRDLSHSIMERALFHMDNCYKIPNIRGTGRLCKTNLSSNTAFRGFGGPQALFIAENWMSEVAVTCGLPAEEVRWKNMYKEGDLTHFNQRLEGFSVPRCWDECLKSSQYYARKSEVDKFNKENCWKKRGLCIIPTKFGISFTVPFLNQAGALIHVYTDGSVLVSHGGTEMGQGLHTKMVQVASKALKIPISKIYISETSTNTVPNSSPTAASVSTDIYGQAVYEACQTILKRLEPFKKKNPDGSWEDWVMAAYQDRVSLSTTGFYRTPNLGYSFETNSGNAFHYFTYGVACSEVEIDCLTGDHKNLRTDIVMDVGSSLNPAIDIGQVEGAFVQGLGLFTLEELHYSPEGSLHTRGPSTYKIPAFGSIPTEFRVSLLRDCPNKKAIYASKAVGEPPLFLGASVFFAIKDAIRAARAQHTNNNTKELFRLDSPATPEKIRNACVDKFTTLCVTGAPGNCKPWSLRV

On to `O=c1cc(-c2ccc(O)c(O)c2)oc2cc(O)cc(O)c12` [luteolin], for which half-maximal inhibition against xanthine oxidase [1] (IC50) required 1500 nM. Consider `O=c1cc(-c2ccc(O[C@@H]3O[C@H](CO)[C@@H](O)[C@H](O)[C@H]3O)c(O)c2)oc2cc(O)cc(O)c12` [luteolin-4′-O-glucoside], for which the IC50 against xanthine oxidase [2] was 580 nM.
